Results: patent US5064953A, “Intermediates cephalosporin derivatives” (Mochida Pharmaceutical Co., Ltd., priority 1983, dated 1991)
In brackets after ≈: the same amount, converted by molar mass.

How the values were obtained:
Experiment in all cases: Antibacterial activity in vitro, agar plate dilution method (MIC)
Format in all cases: cell-based
Proteus morganii IF03848 = conditions: Morganella morganii, 10^6 cells/ml, Mueller Hinton agar, 37° C., 20 hours
Procedure: (§1) Antibacterial activity in vitro was determined in accordance with the agar plate dilution method. A platinum loop each of test bacteria (10^6 cells/ml), cultured in Mueller Hinton broth, was inoculated on Mueller Hinton agar plates which contained test compounds at various concentrations. After cultivating at 37° C. for 20 hours, the minimum inhibitory concentration (MIC μg/ml) was determined.

[1] = tested on: Serratia marcescens IF03759; conditions: 10^6 cells/ml, Mueller Hinton agar, 37° C., 20 hours
Procedure: as §1

[2] = tested on: Staphylococcus aureus Smith; conditions: 10^6 cells/ml, Mueller Hinton agar, 37° C., 20 hours
Procedure: as §1

Escherichia coli 67 = conditions: 10^6 cells/ml, Mueller Hinton agar, 37° C., 20 hours
Procedure: as §1

[3] = tested on: Klebsiella pneumoniae IF03317; conditions: 10^6 cells/ml, Mueller Hinton agar, 37° C., 20 hours
Procedure: as §1

[4] = tested on: Pseudomonas aeruginosa IF03445; conditions: 10^6 cells/ml, Mueller Hinton agar, 37° C., 20 hours
Procedure: as §1

| Compound | MIC (Proteus morganii IF03848) [µg/mL] | MIC [1] [µg/mL] | MIC [2] [µg/mL] | MIC (Escherichia coli 67) [µg/mL] | MIC [3] [µg/mL] | MIC [4] [µg/mL] |
| --- | --- | --- | --- | --- | --- | --- |
| CO/N=C(\C(=O)N[C@@H]1C(=O)N2C(C(=O)O)=C(CSc3c(C(=O)O)cnc4ncnn34)CS[C@H]12)c1csc(N)n1 [Compound 3, (6R,7R)-7-[2-(2-amino-4-thiazolyl)-2-(Z-methoxyimino)acetamido]-3-[(6-carboxy-s-triazolo[1,5-a]pyrimidin-7-yl)-thiomethyl]-8-oxo-5-thia-1-azabicyclo [4.2.0]oct-2-ene-2-carboxylic acid] | 1.57 (≈ 2.65 µM) | 0.78 (≈ 1.32 µM) | 12.5 (≈ 21.1 µM) | 0.39 (≈ 0.659 µM) | < 0.05 | > 100 |
| CO/N=C(\C(=O)N[C@@H]1C(=O)N2C(C(=O)O)=C(CSc3cc(C)nc4nc(CC(=O)O)nn34)CS[C@H]12)c1csc(N)n1 [Compound 4, (6R,7R)-7-[2-(2-amino-4-thiazolyl)-2-(Z-methoxyimino)acetamido]-3-[(2-carboxymethyl-5-methyl-s-triazolo[1,5-a]pyrimidin-7-yl)thiomethyl]-8-oxo-5-thia-1-azabicyclo[4.2.0]oct-2-ene-2-carboxylic acid] | 0.78 (≈ 1.26 µM) | 0.1 (≈ 0.161 µM) | 3.13 (≈ 5.05 µM) | 0.2 (≈ 0.323 µM) | < 0.05 | 25 (≈ 40.3 µM) |
| CO/N=C(\C(=O)N[C@@H]1C(=O)N2C(C(=O)O)=C(CSc3cc(CC(=O)O)nc4ncnn34)CS[C@H]12)c1csc(N)n1 [Compound 5, (6R,7R)-7-[2-(2-amino-4-thiazolyl)-2-(Z-methoxyimino)acetamido]-3-[(5-carboxymethyl-s-triazolo[1,5-a]pyrimidin-7-yl)thiomethyl]-8-oxo-5-thia-1-azabicyclo[4.2.0]oct-2-ene-2-carboxylic acid] | 0.78 (≈ 1.29 µM) | 0.2 (≈ 0.33 µM) | 3.13 (≈ 5.17 µM) | 0.1 (≈ 0.165 µM) | < 0.05 | > 100 |
| CO/N=C(\C(=O)N[C@@H]1C(=O)N2C(C(=O)O)=C(CSc3c(C(=O)O)cnc4nc(C(=O)O)nn34)CS[C@H]12)c1csc(N)n1 [Compound 7, (6R,7R)-7-[2-(2-amino-4-thiazolyl)-2-(Z-methoxyimino)acetamido]-3-[(2,6-dicarboxy-s-triazolo[1,5-a]pyrimidin-7-yl)thiomethyl]-8-oxo-5-thia-1-azabicyclo[4.2.0]oct-2-ene-2-carboxylic acid] | 0.39 (≈ 0.614 µM) | 0.39 (≈ 0.614 µM) | 12.5 (≈ 19.7 µM) | < 0.05 | < 0.05 | > 100 |
| Cc1cc(SCC2=C(C(=O)O)N3C(=O)[C@@H](NC(=O)/C(=N\OC(=O)c4cccnc4)c4csc(N)n4)[C@H]3SC2)n2nc(C(=O)O)nc2n1 [Compound 11, (6R,7R)-7-[2-(2-amino-4-thiazolyl)-2-[Z-(3-pyridinecarbonyl)oxyimino]acetamido]-3-[(2-carboxy-5-methyl-s-trizolo[1,5-a]pyrimidin-7-yl)thiomethyl]-8-oxo-5-thia-1-azabicyclo[4.2.0]oct-2-ene-2-carboxylic acid] | 0.1 (≈ 0.144 µM) | < 0.05 | 0.39 (≈ 0.56 µM) | < 0.05 | < 0.05 | > 100 |
| Cc1cc(SCC2=C(C(=O)O)N3C(=O)[C@@H](NC(=O)/C(=N\OC(=O)c4ccc5c(c4)OCO5)c4csc(N)n4)[C@H]3SC2)n2nc(C(=O)O)nc2n1 [Compound 12] | 0.78 (≈ 1.05 µM) | 0.39 (≈ 0.527 µM) | 0.78 (≈ 1.05 µM) | 0.39 (≈ 0.527 µM) | 0.39 (≈ 0.527 µM) | 25 (≈ 33.8 µM) |
| CC(=O)Oc1cc(C(=O)O/N=C(\C(=O)N[C@@H]2C(=O)N3C(C(=O)O)=C(CSc4cc(C)nc5nc(C(=O)O)nn45)CS[C@H]23)c2csc(N)n2)cc(OC(C)=O)c1OC(C)=O [Compound 13] | 0.2 (≈ 0.23 µM) | < 0.05 | 0.78 (≈ 0.897 µM) | 0.05 (≈ 0.0575 µM) | < 0.05 | 1.57 (≈ 1.8 µM) |
| CO/N=C(\C(=O)N[C@@H]1C(=O)N2C(C(=O)O)=C(CSc3ccnc4nc(C(=O)O)nn34)CS[C@H]12)c1csc(N)n1 [Compound 14, (6R,7R)-7-[2-(2-amino-4-thiazolyl)-2-(Z-methoxyimino)acetamido]-3-[(2-carboxy-s-triazolo[1,5-a]pyrimidin-7-yl)thiomethyl]-8-oxo-5-thia-1-azabicyclo[4.2.0]oct-2-ene-2-carboxylic acid] | 0.2 (≈ 0.338 µM) | < 0.05 | 3.13 (≈ 5.29 µM) | 0.1 (≈ 0.169 µM) | < 0.05 | 50 (≈ 84.5 µM) |
| CO/N=C(\C(=O)N[C@@H]1C(=O)N2C(C(=O)O)=C(CSc3cc(O)nc4nc(C(=O)O)nn34)CS[C@H]12)c1csc(N)n1 [Compound 15] | 0.78 (≈ 1.28 µM) | 0.1 (≈ 0.165 µM) | 12.5 (≈ 20.6 µM) | 0.39 (≈ 0.642 µM) | < 0.05 | 12.5 (≈ 20.6 µM) |
| CO/N=C(\C(=O)N[C@@H]1C(=O)N2C(C(=O)O)=C(CSc3cc(OC)nc4ncnn34)CS[C@H]12)c1csc(N)n1 [Compound 16, (6R,7R)-7-[2-(2-amino-4-thiazolyl)-2-(Z-methoxyimino)acetamido]-3-[(5-methoxy-s-triazolo[1,5-a]pyrimidin-7-yl)thiomethyl]-8-oxo-5-thia-1-azabicyclo[4.2.0]oct-2-ene-2-carboxylic acid] | 3.13 (≈ 5.42 µM) | 0.39 (≈ 0.675 µM) | 1.57 (≈ 2.72 µM) | 0.1 (≈ 0.173 µM) | < 0.05 | 100 (≈ 173 µM) |
| CO/N=C(\C(=O)N[C@@H]1C(=O)N2C(C(=O)O)=C(CSc3cc(C)nc4nc(N)nn34)CS[C@H]12)c1csc(N)n1 [Compound 17, (6R,7R)-7-[2-(2-amino-4-thiazolyl)-2-(Z-methoxyimino)acetamido]-3-[(2-amino-5-methyl-s-triazolo[1,5-a]pyrimidin-7-yl)thiomethyl]-8-oxo-5-thia-1-azabicyclo[4.2.0]oct-2-ene-2-carboxylic acid] | 0.39 (≈ 0.676 µM) | 0.2 (≈ 0.347 µM) | 1.57 (≈ 2.72 µM) | 0.1 (≈ 0.173 µM) | < 0.05 | 50 (≈ 86.7 µM) |
| CO/N=C(\C(=O)N[C@@H]1C(=O)N2C(C(=O)O)=C(CSc3cc(C)nc4nc(S(=O)(=O)O)nn34)CS[C@H]12)c1csc(N)n1 [Compound 18, (6R,7R)-7-[2-(2-amino-4-thiazolyl)-2-(Z-methoxyimino)acetamido]-3-[(2 hydroxysulfonyl-5-methyl-s-triazolo[1,5-a]pyrimidin-7-yl)thiomethyl]-8-oxo-5-thia-1-azabicyclo[4.2.0]oct 2-ene-2-carboxylic acid] | 0.78 (≈ 1.22 µM) | 0.2 (≈ 0.312 µM) | 0.39 (≈ 0.608 µM) | < 0.05 | < 0.05 | 100 (≈ 156 µM) |
| CO/N=C(\C(=O)N[C@@H]1C(=O)N2C(C(=O)O)=C(CSc3nc4ncc(C(=O)O)c(O)n4n3)CS[C@H]12)c1csc(N)n1 [Compound 19, (6R,7R)-7-[2-(2-amino-4-thiazolyl)-2-(Z-methoxyimino)acetamido]-3-[(6-carboxy-7-hydroxy-s-triazolo[1,5-a]pyrimidin-2-yl)thiomethyl]-8-oxo-5-thia-1-azabicyclo[4.2.0]oct-2-ene-2-carboxylic acid] | 0.2 (≈ 0.329 µM) | < 0.05 | 6.25 (≈ 10.3 µM) | < 0.05 | < 0.05 | 6.25 (≈ 10.3 µM) |
| CO/N=C(\C(=O)N[C@@H]1C(=O)N2C(C(=O)O)=C(CSc3cc(C(=O)O)nc4nnc(C)n34)CS[C@H]12)c1csc(N)n1 [Compound 20, (6R,7R)-7-[2-(2-amino-4-thiazolyl)-2-(Z-methoxyimino)acetamido]-3-[(7-carboxy-3-methyl-s-triazolo[4,3-a]pyrimidin-5-yl)thiomethyl]-8-oxo-5-thia-1-azabicyclo[4.2.0]oct-2-ene-2-carboxylic acid] | 0.78 (≈ 1.29 µM) | 0.2 (≈ 0.33 µM) | 3.13 (≈ 5.17 µM) | 0.2 (≈ 0.33 µM) | < 0.05 | 12.5 (≈ 20.6 µM) |
| CO/N=C(\C(=O)N[C@@H]1C(=O)N2C(C(=O)O)=C(CSc3nnc4nc(C(=O)O)cc(O)n34)CS[C@H]12)c1csc(N)n1 [Compound 21, (6R,7R)-7-[2-(2-amino-4-thiazolyl)-2-(Z-methoxyimino)acetamido]-3-[(7-carboxy-5-hydroxy-s-triazolo[4,3-a]pyrimidin-3-yl)thiomethyl]-8-oxo-5-thia-1-azabicyclo[4.2.0]oct-2-ene-2-carboxylic acid] | 3.13 (≈ 5.15 µM) | 1.57 (≈ 2.58 µM) | 25 (≈ 41.1 µM) | 0.78 (≈ 1.28 µM) | 0.1 (≈ 0.165 µM) | > 100 |
| CO/N=C(\C(=O)N[C@@H]1C(=O)N2C(C(=O)O)=C(CSc3nc(N)cc4ncnn34)CS[C@H]12)c1csc(N)n1 [Compound 22, (6R,7R)-7-[2-(2-amino-4-thiazolyl)-2-(Z-methoxyimino)acetamido]-3-[(7-amino-s-triazolo[1,5-c]pyrimidin-5-yl)thiomethyl]-8 oxo-5-thia-1-azabicyclo[4.2.0]oct-2-ene-2-carboxylic acid] | 0.78 (≈ 1.39 µM) | 0.39 (≈ 0.693 µM) | 1.57 (≈ 2.79 µM) | 0.1 (≈ 0.178 µM) | < 0.05 | 50 (≈ 88.9 µM) |
| CO/N=C(\C(=O)N[C@@H]1C(=O)N2C(C(=O)O)=C(CSc3nnc4cc(C)nc(O)n34)CS[C@H]12)c1csc(N)n1 [Compound 23, (6R,7R)-7-[2-(2-amino-4-thiazolyl)-2-(Z-methoxyimino)acetamido]-3 [(5-hydroxy-7-methyl-s-triazolo[4,3-c]pyrimidin-3-yl)thiomethyl]-8-oxo-5-thia-1-azabicyclo[4.2.0]oct-2-ene-2-carboxylic acid] | 0.78 (≈ 1.35 µM) | 0.39 (≈ 0.675 µM) | 3.13 (≈ 5.42 µM) | 0.1 (≈ 0.173 µM) | < 0.05 | 50 (≈ 86.6 µM) |
